Test results taken from patent US7314867B2, “Pharmaceutical composition comprising a retro-iverso isomer peptide” (priority 2002, dated 2008).
Entries after “also recorded” stand apart in the source; their conditions may differ.

Tested on: serum triglyceride levels in male ICR mice
Assay: Oral administration of peptides to determine inhibition of serum triglyceride level elevation after olive oil feeding
Assay type: in vivo
Details: for Serum Triglyceride: male ICR mice fasted overnight, olive oil 250 mg by gastric intubation, peptide 1.0 mg/mouse orally one hour after lipid, blood collected after two hours; for % Decrease (serum triglyceride) / Activity in lowering elevated serum triglyceride levels compared with the corresponding natural reference peptide: male ICR mice, peptide 1.0 mg/mouse orally; for % Decrease (serum triglyceride): olive oil 250 mg, versus Olive Oil Only; for Activity in lowering elevated serum triglyceride levels compared with the corresponding natural reference peptide: olive oil load, comparison in words
Method: Olive oil (250 mg) was administered via gastric intubation to male ICR mice (6-week old, body weight: 20 g), which were fasted overnight. The peptides were dissolved in 0.1 ml saline solution and administered orally one hour after lipid administration. For the control group, 0.1 ml of saline solution was administered per mouse. After two hours, blood was collected from the orbital vein under ether anesthesia and the serum was separated by centrifugation (3000 rpm, 30 min, 1° C.). Serum triglyceride levels were assayed using commercially available methods (e.g. INFINITY (Registered Trade Mark) triglycerides reagent; Sigma Chemical Co.). The results were compared with L-Val-L-Val-L-Tyr-L-Pro (Reference Peptide 1), L-Val-L-Tyr-L-Pro (Reference Peptide 2), and L-Val-L-Thr-L-Leu (Reference Peptide 3) and shown in Table 1.

Row | Substance | Serum Triglyceride [mg/100 ml] | % Decrease (serum triglyceride) [%] | Activity in lowering elevated serum triglyceride levels compared with the corresponding natural reference peptide | Activity in lowering elevated serum triglyceride levels compared with the corresponding natural reference peptide (listed as D-Leu D-Thr D-Val)
1 | D-Pro D-Tyr D-Val C-NH2 [Retro Inverso Polypeptide 2] | 231.8 ± 27.6 | 50.8 | substantially exceed the activity of the corresponding natural oligopeptide | 
2 | L-Val-L-Val-L-Tyr-L-Pro [Ref. Peptide 1, reference compound] | 244.7 ± 25.5 | 46.3 |  | 
3 | D-Leu D-Thr D-Val C-NH2 [Retro Inverso Polypeptide 3] | 294.6 ± 33.8 | 28.7 | higher activities in lowering elevated serum triglyceride levels than Reference 2 and 3, respectively | substantially exceed the activity of the corresponding natural oligopeptide
4 | L-Val-L-Tyr-L-Pro [Ref. Peptide 2, reference compound] | 407.7 ± 42.0 | 0 |  | 
5 | D-Pro D-Tyr D-Val D-Val C-NH2 [Retro Inverso Polypeptide 1] | 313.7 ± 45.9 | 22.0 | higher activities in lowering elevated serum triglyceride levels than Reference 2 and 3, respectively; also recorded: about half of Reference Peptide 1 | 
6 | L-Val-L-Thr-L-Leu [Ref. Peptide 3, reference compound] | 352.7 ± 35.6 | 8.3 |  | 
